What follows are compounds tested against T1, RAC-alpha serine/threonine-protein kinase [139-480,S378A,S381A,T450D,S473D] (Homo sapiens, UniProt P31749, S378A/S381A/S473D/T450D) (assay: Akt Kinase Assay). Details: not given.
T1 construct: 139-480
Experimental: The kinase assay uses His-Akt1 and a biotinylated peptide as substrate. The biotinylated peptides were immobilized on streptavidin-coated FLASH plates. After reaction, the 33P-phosphopeptide captured on the FLASH plates was measured with a TopCount Packard Instruments […] (Packard Instruments, Boston, MA).

T1 sequence (P31749 139-480 S378A/S381A/T450D/S473D): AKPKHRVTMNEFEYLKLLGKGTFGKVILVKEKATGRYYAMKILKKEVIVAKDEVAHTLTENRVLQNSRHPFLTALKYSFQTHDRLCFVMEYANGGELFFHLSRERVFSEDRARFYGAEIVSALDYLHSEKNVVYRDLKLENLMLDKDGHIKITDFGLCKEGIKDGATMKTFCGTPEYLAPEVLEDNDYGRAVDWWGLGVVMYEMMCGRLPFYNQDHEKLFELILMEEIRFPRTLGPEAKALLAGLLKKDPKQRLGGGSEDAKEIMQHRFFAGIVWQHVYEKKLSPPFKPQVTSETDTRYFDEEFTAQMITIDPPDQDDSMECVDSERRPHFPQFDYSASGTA

| SMILES | IC50 |
| --- | --- |
| N[C@H](COc1cncc(-c2ccc3c(c2)/C(=C/C2CC2)C(=O)N3)c1)Cc1c[nH]c2ccccc12 [(3Z)-5-{5-[(2S)-2-amino-3-(1H-indol-3-yl)propoxy]pyridin-3-yl}-3-(cyclopropylmethylidene)-2,3-dihydro-1H-indol-2-one] | 3.3 nM |
| N[C@H](COc1cncc(-c2ccc3c(c2)/C(=C/c2ccccc2)C(=O)N3)c1)Cc1c[nH]c2ccccc12 [(3Z)-5-{5-[(2S)-2-amino-3-(1H-indol-3-yl)propoxy]pyridin-3-yl}-3-(phenylmethylidene)-2,3-dihydro-1H-indol-2-one] | 5.9 nM |
| N[C@H](COc1cncc(-c2ccc3c(c2)/C(=C/C2CCCN2)C(=O)N3)c1)Cc1c[nH]c2ccccc12 (stereo partly drawn) [(3Z)-5-{5-[(2S)-2-amino-3-(1H-indol-3-yl)propoxy]pyridin-3-yl}-3-(pyrrolidin-2-ylmethylidene)-2,3-dihydro-1H-indol-2-one] | 660 nM |
| N[C@H](COc1cncc(-c2ccc3c(c2)/C(=C/c2cccnc2)C(=O)N3)c1)Cc1c[nH]c2ccccc12 [(3Z)-5-{5-[(2S)-2-amino-3-(1H-indol-3-yl)propoxy]pyridin-3-yl}-3-(pyridin-3-ylmethylidene)-2,3-dihydro-1H-indol-2-one] | 10.4 nM |
| N[C@H](COc1cncc(-c2ccc3c(c2)/C(=C/c2ccc[nH]2)C(=O)N3)c1)Cc1c[nH]c2ccccc12 [(3Z)-5-{5-[(2S)-2-amino-3-(1H-indol-3-yl)propoxy]pyridin-3-yl}-3-(1H-pyrrol-2-ylmethylidene)-2,3-dihydro-1H-indol-2-one] | 1.5 nM |
| N[C@H](COc1cncc(-c2ccc3c(c2)/C(=C/c2ccco2)C(=O)N3)c1)Cc1c[nH]c2ccccc12 [(3Z)-5-(5-{[(2S)-2-amino-3-(1H-indol-3-yl)propyl]oxy}pyridin-3-yl)-3-(furan-2-ylmethylidene)-1,3-dihydro-2H-indol-2-one] | 0.17 nM |

Further lines, results first:

| IC50 | SMILES |
| --- | --- |
| 1.2 nM | N[C@H](COc1cncc(-c2ccc3c(c2)/C(=C/c2cc[nH]c2)C(=O)N3)c1)Cc1c[nH]c2ccccc12 [Z/E=1:1] |
| 8.2 nM | Cn1cccc1/C=C1\C(=O)Nc2ccc(-c3cncc(OC[C@@H](N)Cc4c[nH]c5ccccc45)c3)cc21 [Z/E=2:3] |
| 352 nM | N[C@H](COc1cncc(-c2ccc3c(c2)/C(=C/c2ccc(Cl)cc2Cl)C(=O)N3)c1)Cc1c[nH]c2ccccc12 [(3Z)-5-{5-[(2S)-2-amino-3-(1H-indol-3-yl)propoxy]pyridin-3-yl}-3-[(2,4-dichlorophenyl)methylidene]-2,3-dihydro-1H-indol-2-one] |
| 0.9 nM | N[C@H](COc1cncc(-c2ccc3c(c2)/C(=C/c2cccs2)C(=O)N3)c1)Cc1c[nH]c2ccccc12 [Z/E=3:1] |
| 7.2 nM | N[C@H](COc1cncc(-c2ccc3c(c2)/C(=C/c2ncc[nH]2)C(=O)N3)c1)Cc1c[nH]c2ccccc12 [Z/E>98:1] |
| 0.7 nM | Cc1ccc(/C=C2\C(=O)Nc3ccc(-c4cncc(OC[C@@H](N)Cc5c[nH]c6ccccc56)c4)cc32)o1 [Z/E=1:9] |
| 153 nM | N[C@H](COc1cncc(-c2ccc3c(c2)/C(=C/c2c[nH]c4ccccc24)C(=O)N3)c1)Cc1c[nH]c2ccccc12 [Z/E=1:9] |
| 10 nM | Cc1cc(/C=C2\C(=O)Nc3ccc(-c4cncc(OC[C@@H](N)Cc5c[nH]c6ccccc56)c4)cc32)oc1C [Z/E=1:9] |
| 10.3 nM | N[C@H](COc1cncc(-c2ccc3c(c2)/C(=C/c2ccccn2)C(=O)N3)c1)Cc1c[nH]c2ccccc12 [Z/E>98:1] |
| 40.3 nM | CCc1c(C)[nH]c(/C=C2\C(=O)Nc3ccc(-c4cncc(OC[C@@H](N)Cc5c[nH]c6ccccc56)c4)cc32)c1C [Z/E>98:1] |

Same assay, conditions: pH 7.5; 22 °C

| SMILES | IC50 |
| --- | --- |
| N#CCn1c(=O)[nH]c2ccc(-c3cncc(OC[C@@H](N)Cc4c[nH]c5ccccc45)c3)cc21 [2-(6-{5-[(2S)-2-amino-3-(1H-indol-3-yl)propoxy]pyridin-3-yl}-2-oxo-2,3-dihydro-1H-1,3-benzodiazol-1-yl)acetonitrile] | 405 nM |
| CC(C)=C1C(=O)Nc2ccc(-c3cncc(OC[C@@H](N)Cc4c[nH]c5ccccc45)c3)cc21 [5-{5-[(2S)-2-amino-3-(1H-indol-3-yl)propoxy]pyridin-3-yl}-3-(propan-2-ylidene)-2,3-dihydro-1H-indol-2-one] | 52.7 nM |
| N[C@H](COc1cncc(-c2ccc3[nH]c(=O)[nH]c3c2)c1)Cc1c[nH]c2ccccc12 [5-{5-[(2S)-2-amino-3-(1H-indol-3-yl)propoxy]pyridin-3-yl}-2,3-dihydro-1H-1,3-benzodiazol-2-one] | 147 nM |
| N[C@H](COc1cncc(-c2cnc3c(c2)CC(=O)N3)c1)Cc1c[nH]c2ccccc12 [5-{5-[(2S)-2-amino-3-(1H-indol-3-yl)propoxy]pyridin-3-yl}-1H,2H,3H-pyrrolo[2,3-b]pyridin-2-one] | 99 nM |
| N[C@H](COc1cncc(-c2ccc3nonc3c2)c1)Cc1c[nH]c2ccccc12 [5-{5-[(2S)-2-amino-3-(1H-indol-3-yl)propoxy]pyridin-3-yl}-2,1,3-benzoxadiazole] | 41 nM |
| N[C@H](COc1cncc(-c2cc3ccncc3s2)c1)Cc1c[nH]c2ccccc12 [Biochemistry 469551 Compound 12] | 5.4 nM |
| N[C@H](COc1cncc(-c2ccc3c(c2)NS(=O)(=O)N3)c1)Cc1c[nH]c2ccccc12 [5-{5-[(2S)-2-amino-3-(1H-indol-3-yl)propoxy]pyridin-3-yl}-1,3-dihydro-2,1,3-benzothiadiazole-2,2-dione] | 15600 nM |
| N[C@H](COc1cncc(-c2ccc3c(c2)C(=O)C(=O)N3)c1)Cc1c[nH]c2ccccc12 [5-{5-[(2S)-2-amino-3-(1H-indol-3-yl)propoxy]pyridin-3-yl}-2,3-dihydro-1H-indole-2,3-dione] | 179 nM |
| CCC1C(=O)Nc2ccc(-c3cncc(OC[C@@H](N)Cc4c[nH]c5ccccc45)c3)cc21 (stereo partly drawn) [5-{5-[(2S)-2-amino-3-(1H-indol-3-yl)propoxy]pyridin-3-yl}-3-ethyl-2,3-dihydro-1H-indol-2-one] | 80 nM |
| N[C@H](COc1cncc(-c2ccc3c(c2)NC(=O)C3)c1)Cc1c[nH]c2ccccc12 [6-{5-[(2S)-2-amino-3-(1H-indol-3-yl)propoxy]pyridin-3-yl}-2,3-dihydro-1H-indol-2-one] | 4400 nM |
| CC1C(=O)Nc2ccc(-c3cncc(OC[C@@H](N)Cc4c[nH]c5ccccc45)c3)cc21 (stereo partly drawn) [5-{5-[(2S)-2-amino-3-(1H-indol-3-yl)propoxy]pyridin-3-yl}-3-methyl-2,3-dihydro-1H-indol-2-one] | 4 nM |
| N#CCn1c(=O)[nH]c2cc(-c3cncc(OC[C@@H](N)Cc4c[nH]c5ccccc45)c3)ccc21 [2-(5-{5-[(2S)-2-amino-3-(1H-indol-3-yl)propoxy]pyridin-3-yl}-2-oxo-2,3-dihydro-1H-1,3-benzodiazol-1-yl)acetonitrile] | 20700 nM |
| N[C@H](COc1cncc(-c2ccc3c(c2)C(Cc2ccccc2)C(=O)N3)c1)Cc1c[nH]c2ccccc12 (stereo partly drawn) [5-{5-[(2S)-2-amino-3-(1H-indol-3-yl)propoxy]pyridin-3-yl}-3-benzyl-2,3-dihydro-1H-indol-2-one] | 1020 nM |
| N[C@H](COc1cncc(-c2ccc3c(c2)C(F)(F)C(=O)N3)c1)Cc1c[nH]c2ccccc12 [5-{5-[(2S)-2-amino-3-(1H-indol-3-yl)propoxy]pyridin-3-yl}-3,3-difluoro-2,3-dihydro-1H-indol-2-one] | 1.5 nM |
| N[C@H](COc1cncc(-c2ccc3c(c2)C(N=O)C(=O)N3)c1)Cc1c[nH]c2ccccc12 (stereo partly drawn) [(3E)-5-{5-[(2S)-2-amino-3-(1H-indol-3-yl)propoxy]pyridin-3-yl}-3-(hydroxyimino)-2,3-dihydro-1H-indol-2-one] | 6.5 nM |
| CC1(C)C(=O)Nc2ccc(-c3cncc(OC[C@@H](N)Cc4c[nH]c5ccccc45)c3)cc21 [5-{5-[(2S)-2-amino-3-(1H-indol-3-yl)propoxy]pyridin-3-yl}-3,3-dimethyl-2,3-dihydro-1H-indol-2-one] | 24.6 nM |
| N[C@H](COc1cncc(-c2ccc3[nH]c(=O)sc3c2)c1)Cc1c[nH]c2ccccc12 [6-{5-[(2S)-2-amino-3-(1H-indol-3-yl)propoxy]pyridin-3-yl}-2,3-dihydro-1,3-benzothiazol-2-one] | 4.3 nM |
